Data taken from PubChem BioAssay AID330 (DTP/NCI, 2004).
Where “and” joins values, the source holds several entries; their conditions need not be identical. Identical values can stand only once. Inconclusive results and toxic doses are left out.

Test system: P388 leukemia ip, CD2F1 mice, survival T/C
Assay: NCI In Vivo Anticancer Drug Screen. Data for tumor model P388 Leukemia (intraperitoneal) in CD2F1 (CDF1) mice
Details: endpoint: median survival time, higher = longer survival
How it was run: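 Mice carrying the transplanted tumor received test compound or vehicle. Survival was recorded in each group, and the value is the treated-group measurement divided by that of the vehicle-treated control group.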

[1] = dose: 50.0 mg/kg/injection, schedule: Q01DX009 (ip), vehicle: Klucel (hydroxypropylcellulose) (HPC)
[2] = dose: 100.0 mg/kg/injection, schedule: Q01DX009 (ip), vehicle: Klucel (hydroxypropylcellulose) (HPC)
[3] = dose: 60.0 mg/kg/injection, schedule: Q01DX005 (ip), vehicle: saline with Tween-80
[4] = dose: 240.0 mg/kg/injection, schedule: Q01DX005 (ip), vehicle: saline with Tween-80
[5] = dose: 50.0 mg/kg/injection, schedule: Q01DX005 (ip), vehicle: saline with Tween-80
[6] = dose: 100.0 mg/kg/injection, schedule: Q01DX005 (ip), vehicle: saline with Tween-80
[7] = dose: 200.0 mg/kg/injection, schedule: Q01DX005 (ip), vehicle: saline with Tween-80
[8] = dose: 50.0 mg/kg/injection, schedule: Q01DX009 (ip), vehicle: saline with Tween-80
[9] = dose: 12.5 mg/kg/injection, schedule: Q01DX005 (ip), vehicle: saline
[10] = dose: 25.0 mg/kg/injection, schedule: Q01DX005 (ip), vehicle: saline
[11] = dose: 50.0 mg/kg/injection, schedule: Q01DX005 (ip), vehicle: saline
[12] = dose: 50.0 mg/kg/injection, schedule: Q01DX005 (ip), vehicle: Klucel (hydroxypropylcellulose) (HPC)
[13] = dose: 100.0 mg/kg/injection, schedule: Q01DX005 (ip), vehicle: Klucel (hydroxypropylcellulose) (HPC)
[14] = dose: 200.0 mg/kg/injection, schedule: Q01DX005 (ip), vehicle: Klucel (hydroxypropylcellulose) (HPC)
[15] = dose: 60.0 mg/kg/injection, schedule: Q01DX005 (ip), vehicle: saline
[16] = dose: 120.0 mg/kg/injection, schedule: Q01DX005 (ip), vehicle: saline
[17] = dose: 240.0 mg/kg/injection, schedule: Q01DX005 (ip), vehicle: saline
[18] = dose: 120.0 mg/kg/injection, schedule: Q01DX005 (ip), vehicle: saline with Tween-80
[19] = dose: 50.0 mg/kg/injection, schedule: Q01DX009 (ip), vehicle: saline
[20] = dose: 100.0 mg/kg/injection, schedule: Q01DX009 (ip), vehicle: saline
[21] = dose: 60.0 mg/kg/injection, schedule: Q01DX005 (ip), vehicle: Klucel (hydroxypropylcellulose) (HPC)
[22] = dose: 120.0 mg/kg/injection, schedule: Q01DX005 (ip), vehicle: Klucel (hydroxypropylcellulose) (HPC)
[23] = dose: 240.0 mg/kg/injection, schedule: Q01DX005 (ip), vehicle: Klucel (hydroxypropylcellulose) (HPC)
[24] = dose: 200.0 mg/kg/injection, schedule: Q01DX009 (ip), vehicle: saline

Compound: CC(C)CCCCCCCCCCCCC(=O)NCC(=O)NC1C(C)OC(Nc2ncnc3nc[nH]c23)C(O)C1O (configuration not stated)
- T/C (dose: 0.13 mg/kg/injection, schedule: Q01DX009 (ip), vehicle: other): 114 % of control
- T/C (dose: 0.25 mg/kg/injection, schedule: Q01DX009 (ip), vehicle: other): 121 % of control
- T/C (dose: 0.5 mg/kg/injection, schedule: Q01DX009 (ip), vehicle: other): 123 % of control
- T/C (dose: 1.0 mg/kg/injection, schedule: Q01DX009 (ip), vehicle: other): 157 % of control and 163 % of control
- T/C (dose: 1.0 mg/kg/injection, schedule: Q01DX009 (oral), vehicle: distilled water + Tween-80): 104 % of control
- T/C (dose: 2.0 mg/kg/injection, schedule: Q01DX009 (oral), vehicle: distilled water + Tween-80): 102 % of control
- T/C (dose: 4.0 mg/kg/injection, schedule: Q01DX009 (ip), vehicle: other): 97 % of control
- T/C (dose: 4.0 mg/kg/injection, schedule: Q01DX009 (oral), vehicle: distilled water + Tween-80): 105 % of control
- T/C (dose: 8.0 mg/kg/injection, schedule: Q01DX009 (oral), vehicle: distilled water + Tween-80): 103 % of control
- T/C (dose: 16.0 mg/kg/injection, schedule: Q01DX009 (oral), vehicle: distilled water + Tween-80): 104 % of control

Compound: COc1ccc(/C=C2/OC(=O)C(C(C)=O)=C2O)cc1
- T/C [1]: 115 % of control
- T/C [2]: 100 % of control

Compound: O=[N+]([O-])/N=c1/nc2scc(-c3ccc([N+](=O)[O-])cc3)n2s1
- T/C (dose: 1.87 mg/kg/injection, schedule: Q01DX005 (ip), vehicle: saline with Tween-80): 99 % of control
- T/C (dose: 3.75 mg/kg/injection, schedule: Q01DX005 (ip), vehicle: saline with Tween-80): 107 % of control
- T/C (dose: 7.5 mg/kg/injection, schedule: Q01DX005 (ip), vehicle: saline with Tween-80): 99 % of control and 97 % of control
- T/C (dose: 30.0 mg/kg/injection, schedule: Q01DX005 (ip), vehicle: saline with Tween-80): 91 % of control
- T/C [3]: 106 % of control
- T/C [4]: 87 % of control

Compound: COC(=O)C1CCCCOCCOCCOCCOCCOCCCCCC1=O (configuration not stated)
- T/C [5]: 102 % of control
- T/C [6]: 102 % of control
- T/C [7]: 94 % of control

Compound: CCC[CH2][Sn]([CH2]CCC)([CH2]CCC)[S]C12CC3CC(CC(C3)C1)C2
- T/C (dose: 100.0 mg/kg/injection, schedule: Q04DX003 (ip), vehicle: saline): 112 % of control
- T/C (dose: 200.0 mg/kg/injection, schedule: Q04DX003 (ip), vehicle: saline): 102 % of control
- T/C (dose: 400.0 mg/kg/injection, schedule: Q04DX003 (ip), vehicle: saline): 106 % of control

Compound: O=C1CS[C@@H]2C(=O)CCCC2C1 (some centres not stated)
- T/C [5]: 98 % of control
- T/C [6]: 98 % of control
- T/C [7]: 92 % of control

Compound: CC1(C)NC(=O)N(Br)C1=O
- T/C [8]: 104 % of control
- T/C (dose: 100.0 mg/kg/injection, schedule: Q01DX009 (ip), vehicle: saline with Tween-80): 100 % of control
- T/C (dose: 200.0 mg/kg/injection, schedule: Q01DX009 (ip), vehicle: saline with Tween-80): 104 % of control

Compound: c1cc2nc(-c3ccc4cc(C5=NCCN5)[nH]c4c3)[nH]c2cc1C1=NCCN1
- T/C [9]: 106 % of control
- T/C [10]: 106 % of control
- T/C [11]: 99 % of control

Compound: CCC[CH2][Sn]([CH2]CCC)([O]C(=O)/C=C/c1ccccc1)[O]C(=O)/C=C/c1ccccc1
- T/C (dose: 1.56 mg/kg/injection, schedule: Q04DX003 (ip), vehicle: DMSO): 87 % of control
- T/C (dose: 3.12 mg/kg/injection, schedule: Q04DX003 (ip), vehicle: DMSO): 89 % of control
- T/C (dose: 6.25 mg/kg/injection, schedule: Q04DX003 (ip), vehicle: DMSO): 89 % of control
- T/C (dose: 12.5 mg/kg/injection, schedule: Q04DX003 (ip), vehicle: saline with Tween-80): 117 % of control

Compound: CCOC(=O)C1Cc2c([nH]c(=O)[nH]c2=O)OC1c1ccc([N+](=O)[O-])cc1 (configuration not stated)
- T/C [12]: 97 % of control
- T/C [13]: 89 % of control
- T/C [14]: 94 % of control

Compound: CC(=O)OCC#CCOC(C)=O
- T/C (dose: 12.5 mg/kg/injection, schedule: Q01DX009 (ip), vehicle: saline sonified): 100 % of control
- T/C (dose: 25.0 mg/kg/injection, schedule: Q01DX009 (ip), vehicle: saline sonified): 100 % of control
- T/C (dose: 50.0 mg/kg/injection, schedule: Q01DX009 (ip), vehicle: saline sonified): 100 % of control

Compound: O=C(CC1=NC2NN(c3ccccc3)C(=O)C2=C1CC(=O)c1ccccc1)c1ccccc1 (configuration not stated)
- T/C [15]: 100 % of control
- T/C [16]: 107 % of control
- T/C [17]: 110 % of control

Compound: Cn1c(=O)oc2cc(N)c(Br)cc21
- T/C [12]: 90 % of control
- T/C [13]: 92 % of control
- T/C [14]: 94 % of control

Compound: CC(=O)Oc1ccc2c3c1CCCN3CCC2
- T/C [3]: 108 % of control
- T/C [18]: 101 % of control
- T/C [4]: 102 % of control

Compound: CC(=O)OCC1OC(Nc2[nH]c(=O)[nH]c(=O)c2N=O)C(OC(C)=O)C(OC(C)=O)C1OC(C)=O (configuration not stated)
- T/C [15]: 111 % of control
- T/C [16]: 103 % of control
- T/C [17]: 103 % of control

Compound: O=C(O)CCS(=O)(=O)CCC(=O)O
- T/C (dose: 100.0 mg/kg/injection, schedule: Q04DX003 (ip), vehicle: saline with Tween-80): 100 % of control
- T/C (dose: 200.0 mg/kg/injection, schedule: Q04DX003 (ip), vehicle: saline with Tween-80): 104 % of control

Compound: CC[N+](CC)(CC)CCOc1nc(OCC[N+](CC)(CC)CC)nc(OCC[N+](CC)(CC)CC)n1
- T/C (dose: 6.25 mg/kg/injection, schedule: Q01DX009 (ip), vehicle: saline): 100 % of control
- T/C (dose: 12.5 mg/kg/injection, schedule: Q01DX009 (ip), vehicle: saline): 100 % of control
- T/C (dose: 25.0 mg/kg/injection, schedule: Q01DX009 (ip), vehicle: saline): 100 % of control

Compound: ClC1=C(Cl)C(=C2CCCC2)C(Cl)=C1Cl
- T/C [1]: 100 % of control
- T/C [2]: 100 % of control
- T/C (dose: 200.0 mg/kg/injection, schedule: Q01DX009 (ip), vehicle: Klucel (hydroxypropylcellulose) (HPC)): 87 % of control

Compound: COC(=O)c1nc2n[nH]c(N)c2c2c1CCCCCCCCCC2
- T/C [3]: 99 % of control
- T/C [18]: 93 % of control
- T/C [4]: 94 % of control

Compound: CCOC(=O)NNc1cccc(Cl)c1
- T/C [19]: 100 % of control
- T/C [20]: 100 % of control

Compound: O=C1c2ccccc2C(=O)c2c3c(cc([N+](=O)[O-])c21)OCO3
- T/C [3]: 100 % of control
- T/C [18]: 89 % of control
- T/C [4]: 87 % of control

Compound: OC1CC2c3ccccc3C1c1cccc[n+]12 (configuration not stated)
- T/C [9]: 106 % of control
- T/C [10]: 108 % of control
- T/C [11]: 103 % of control and 106 % of control

Compound: CCN(CC)CCSC(=O)N1c2ccccc2Sc2ccc(Cl)cc21
- T/C (dose: 3.12 mg/kg/injection, schedule: Q01DX009 (ip), vehicle: saline with Tween-80): 96 % of control
- T/C (dose: 6.25 mg/kg/injection, schedule: Q01DX009 (ip), vehicle: saline with Tween-80): 104 % of control and 105 % of control
- T/C (dose: 12.5 mg/kg/injection, schedule: Q01DX009 (ip), vehicle: saline with Tween-80): 96 % of control
- T/C (dose: 25.0 mg/kg/injection, schedule: Q01DX009 (ip), vehicle: saline with Tween-80): 93 % of control
- T/C [8]: 100 % of control

Compound: O=C(NS(=O)(=O)Cl)Oc1ccc(Cl)cc1C(=O)Oc1ccc(Cl)cc1
- T/C [21]: 90 % of control
- T/C [22]: 93 % of control
- T/C [23]: 86 % of control

Compound: O=C(Nc1c(Cl)cccc1Cl)Oc1c(Br)cc(Br)cc1Br
- T/C [21]: 108 % of control
- T/C [22]: 101 % of control
- T/C [23]: 102 % of control

Compound: O=C(O)c1c[nH]c2cc(OCCc3ccc(F)cc3)ccc2c1=O
- T/C [19]: 107 % of control
- T/C [20]: 101 % of control
- T/C [24]: 101 % of control

Compound: C[Si](C)(C)[Si](C)(C)C
- T/C [19]: 98 % of control
- T/C [20]: 111 % of control
- T/C [24]: 102 % of control

Compound: Cc1[nH]c(N)nc(=S)c1CCCOc1ccc([N+](=O)[O-])cc1
- T/C [3]: 99 % of control
- T/C [18]: 93 % of control
- T/C [4]: 97 % of control

Compound: O=C1C2C3C=CC(O3)C2C(=O)N1/N=C/c1cccc2ccccc12 (configuration not stated)
- T/C [5]: 99 % of control
- T/C [6]: 96 % of control
- T/C [7]: 89 % of control
